According to patent US20250188085A1, “COMPOSITIONS AND METHODS FOR INHIBITION OF RAS” (THERAS, INC., priority 2022, published 2025):
pIC50: −log10 of the molar value. Read-outs that look alike come from different tables or passages of the source.

Columns and labels:
pERK in NCI-H358 cells = test: Cell-based pERK HTRF assay; settings: 30 min incubation, read-out: pERK in NCI-H358 cell inhibition IC50
Experimental: pERK assays (Perkin Elmer) were used to determine the effectiveness of compounds of the present disclosure in disrupting KRAS G12C protein/effector signaling in cells.
On Day 1, cells (NCI-H358) were seeded into 96-well plates at 4×10^4 cells/well in complete growth media (RPMI, 10% FBS).
On Day 2, cells were treated with compounds at 0.25% DMSO. The source plate was created with compounds diluted in media at 5-fold the final assay concentration. The compounds were run in a 9-point concentration curve starting at 75 μM, with a 3-fold dilution between concentrations. 20 μL was transferred onto the cell plates (final volume in wells was 100 μL). Plates were harvested after 30 min incubation by aspirating media and adding kit-supplied 1× supplemented lysis buffer to all wells (75 μl per well). Plates were then placed on a plate shaker and incubated at 850 rpm for an additional 30 min.
Antibody mixture solution was prepared by diluting aliquoted d2 and Eu Cryptate antibodies 1:20 in kit supplied detection buffer, then mixed the diluted antibodies solutions (1:1 v:v). 4 μL of this solution was then added to a 384-well detection plate (Perkin Elmer; 6008230).
Samples were homogenized by pipetting up and down and then transferred (16 μL of cell lysates) from the 96-well cell culture plate to two wells of the HTRF 384-well detection plate containing the antibody solution. Plates were centrifuged (524 g for Imin) and allowed to incubate between 4 and 24 h at room temperature. Maximum signal is reached after 4 h incubation time and remains stable over a period of 24 hours. Therefore, readings can be made between 4 and 24 h of incubation. Plates were centrifuged again (524 g for Imin) and analyzed on the En Vision plate reader using the following settings: Excitation 320 nm, Bandwidth 75 nm; Emission 615 nm, Bandwidth 85 nm; Gain 100%; Flashes 100; Lag 60 μs.

[1] = molecular target: T1, GDP-loaded KRAS4b (amino acids 1-169) G12C/C118S protein (Homo sapiens, UniProt P01116, C118S/G12C); test: Covalent cysteine 12 modification by MALDI-TOF MS, GDP-loaded KRAS G12C; type: binding; settings: 15 minutes reaction time point
T1 construct: KRAS4b (amino acids 1-169) G12C/C118S protein; made in house
Experimental: (§1) Reaction: 1 μM of GppNHp-, GTP-, or GDP-loaded KRAS4b (amino acids 1-169) G12C/C118S protein (produced in-house by Protein Expression Laboratory, FNLCR/Leidos Biomed) in 20 mM 4-(2-hydroxyethyl)-1-piperazineethanesulfonic acid (HEPES) buffer containing 150 mM NaCl, 1 mM MgCl2, pH 7.3 was prepared freshly before assay. Ten-μL aliquots of protein were dispensed onto low volume 384-well plate, then 375 nL DMSO, and 25 nL of tested compounds from 5 mM DMSO stocks were added to appropriate wells using ECHO 555 acoustic liquid handler (Labcyte Inc.). For each reaction/assay, three blanks were prepared by mixing 10 μL of protein solution with 400 nL DMSO. The contents of the wells were carefully mixed by aspiration, and then each plate was sealed with an adhesive cover, centrifuged at 2000 g for 1 minute, and kept in the dark at room temperature until 5 min, 15 min, 30 min, or 2 h collections.
(§2) Target pretreatment: Before each assay MALDI target (Bruker MPT 384 ground steel BC) was pre-treated by pipetting on each spot 0.75 μL of saturated sinapinic acid in acetonitrile (ACN).
(§3) Sample preparation: At collection time point, 2 μL of reaction mixtures were pipetted out into 20 μL MALDI matrix solution (saturated solution of sinapinic acid in 1:1 ACN:water solution containing 0.75% trifluoroacetic acid (TFA)) deposited on 384 well polypropylene plate. Resulting solution was mixed by aspiration, centrifuged at 2000 g for 1 minute, then 1 μL aliquots were dispensed on pre-treated MALDI target using Beckman Coulter Biomek FXP 96/384-Span-8 Laboratory Automation Workstation. Finally, the MALDI target was dried under mild vacuum to produce spots with fine crystalline structure.
(§4) Measurements: MALDI-TOF measurements were performed on a Bruker Daltonics rapiflex Tissuetyper TOF-TOF mass spectrometer using linear mode and mass range from 18.6 to 21.6 kDa. Detector gain was set to 3.3× (483 V), sample rate to 5 GS/s, real time smoothing to medium (175 MHz), laser smart beam pattern was set to: “MS Thin Layer M5”, and the laser frequency was 10000 Hz. Spectra were automatically collected using custom Auto Xecute method. Laser power was auto adjusted using fuzzy control. The peak selection range was set to be between 19000 and 21500 Da. Peak evaluation uses half width parameter set to be smaller than 40 Da for processed spectrograms (centroid peak detection; smoothed by SavitzkyGolay algorithm using 7 m/z width and 2 cycles; baseline was subtracted using median algorithm with flatness 1 and median level 0.01). Fuzzy control used Proteins/Oligonucleotides protocol with minimum half width 1/10 times above threshold. Up to 40000 satisfactory shots were collected in 10000 shot steps. Dynamic termination was implemented to finish data collection when peak signal/noise ratio was reaching value of 50.
(§5) Spectra processing: Spectra were smoothed by SavitzkyGolay algorithm using 7 m/z width and three cycles. Centroid peak detection algorithm was used with signal to noise threshold set to 6, relative intensity threshold 4%, peak width 10 m/z and median baseline subtraction using flatness of 1 and median level of 0.01. Peak intensity and area under the peak were evaluated and recorded for all peaks between 19,300 Da and 21,550 Da.
(§6) Calculation of percent modification: Percent modification was calculated as a ratio of peak height for protein modified by compound to sum of peak height of remaining protein plus peak height for protein modified by compound. If multiple modifications were observed each was calculated as a ratio of peak height for given modification versus sum of peak heights for all observed protein species. Data reported in Table 5 are from 15 minutes reaction time point.

[2] = molecular target: T2, GppNHp-loaded KRAS4b (amino acids 1-169) G12C/C118S protein (Homo sapiens, UniProt P01116, C118S/G12C); test: Covalent cysteine 12 modification by MALDI-TOF MS, GppNHp-loaded KRAS G12C; type: binding; settings: 15 minutes reaction time point
T2 construct: KRAS4b (amino acids 1-169) G12C/C118S protein; made in house
Experimental: as §1, §2, §3, §4, §5, §6

[3] = molecular target: T3, Avi-KRAS G12C (1-169) GppNHp/RAF1 RBD-3×FLAG (52-151) (Homo sapiens, UniProt P01116, G12C); test: Raf1 RBD-KRAS G12C-GppNHp disruption (protein:protein interaction HTRF assay); type: biochemical
T3 construct: Avi-KRAS G12C (1-169) GppNHp/RAF1 RBD-3×FLAG (52-151)
Experimental: A protein: protein (PPI) interaction Homogeneous Time Resolved Fluorescence (HTRF) assay was used to determine the effectiveness of compounds of the present disclosure in disrupting KRAS G12C protein and effector (RAF1 or PIK3CA) binding.
The HTRF assay used the following reagents and proteins: 50 nM Avi-KRAS G12C Q25A (1-169) GppNHp/3×FLAG-PI3K CA (157-299); 50 nM Avi-KRAS G12C (1-169) GppNHp/RAF1 RBD-3×FLAG (52-151); 35 nM Avi-PI3K RBD-3×FLAG; Assay Buffer: 50 mM Tris pH 7.5, 100 mM NaCl, 5 mM MgCl2, 0.1% BSA, 0.01% Tween 20, 10% DMSO; Bead Buffer: 50 mM Tris pH 7.5, 0.01% Tween 20; Assay volume: 20 μL (384 well plate-low volume format); and Compound titration: 30-0.02 μM, 3× dilution series.
The HTRF assay employed the following protocol:
Compounds were dispensed in assay plate (384-well, Grenier Bione #784075) using Echo (model 555) with dose response settings: 200 nL final volume, titration from 100 μM as a 10-point dilution series. KRAS proteins were prepared in assay buffer, and dispensed on plates, 5 μL per well, then incubated for 1 h at room temperature, with 700 rpm shaking. RAF1 RBD and PI3K RBD CA were prepared in assay buffer, dispensed onto plates, 5 μL per well, and then incubated for 1 h at room temperature, with 700 rpm shaking. Reagent mix was then prepared and dispensed on plates, 10 μL per well, and then incubated for 1 h at room temperature, with 700 rpm shaking.
Plates were analyzed on an Envision plate reader using the following setting: Excitation 320 nm, Bandwidth 75 nm; Emission 615 nm, Bandwidth 85 nm; Gain 100%; Flashes 100; Lag 60 μs. Data was reported as percentage of activity, with DMSO as 100%. Data was plotted and analyzed using Prism 8.

SMILES | pIC50 (pERK in NCI-H358 cells; Homo sapiens, NCI-H358, 0.5 h) | GDP-KRAS G12C percent of modification [1] | GppNHp-KRAS G12C percent of modification [2] | pIC50 [3] | pIC50 (pERK in NCI-H358 cells)
C=CC(=O)N1CC[C@H](Oc2nc(OC[C@@]34CCCN3C[C@H](F)C4)nc3c(F)c(-c4ccc(F)c5sc(N)nc45)c(Cl)cc23)C1 (atropisomer, axis not shown) [Compound 4] | < 6.00 | D (percent of modification <10%) | D (percent of modification <10%) | < 4.70 | –
C=CC(=O)N1CC[C@H](Oc2nc(OC[C@@]34CCCN3C[C@H](F)C4)nc3c(F)c(-c4ccc(F)c5sc(N)nc45)c(C(F)(F)F)cc23)C1 (atropisomer, axis not shown) [Compound 5] | – | D (percent of modification <10%) | D (percent of modification <10%) | 4.70 to 5.30 | < 6.00
C=CC(=O)N1CC[C@@H](Oc2nc(OC[C@@H]3CC(C)(C)CN3C)nc3c(F)c(-c4ccc(F)c5sc(N)nc45)c(C(F)(F)F)cc23)C1 (atropisomer, axis not shown) [Compound 17] | – | D (percent of modification <10%) | D (percent of modification <10%) | < 4.70 | < 6.00
C=CC(=O)N1CC[C@@H](Oc2nc(OC[C@@H]3C[C@@H](F)CN3C)nc3c(F)c(-c4ccc(F)c5sc(N)nc45)c(C(F)(F)F)cc23)C1 (atropisomer, axis not shown) [Compound 19] | – | D (percent of modification <10%) | D (percent of modification <10%) | 4.70 to 5.30 | < 6.00
C=CC(=O)N1CCC[C@@H](Oc2nc(OC[C@@H]3C[C@@H](F)CN3C)nc3c(F)c(-c4ccc(F)c5sc(N)nc45)c(C(F)(F)F)cc23)C1 (atropisomer, axis not shown) [Compound 20] | < 6.00 | B (50≤percent of modification <70%) | D (percent of modification <10%) | 4.70 to 5.30 | –
C=CC(=O)N1CCC[C@@H](Oc2nc(OC[C@@H]3C[C@@H](F)CN3C)nc3c(F)c(-c4ccc(F)c5sc(N)nc45)c(C(F)(F)F)cc23)C1 (atropisomer, axis not shown) [Compound 21] | – | D (percent of modification <10%) | D (percent of modification <10%) | < 4.70 | < 6.00

Now from value to molecule:

pIC50 (pERK in NCI-H358 cells; Homo sapiens, NCI-H358, 0.5 h) | GDP-KRAS G12C percent of modification [1] | GppNHp-KRAS G12C percent of modification [2] | pIC50 [3] | pIC50 (pERK in NCI-H358 cells) | SMILES
≥ 7.00 | A (percent of modification ≥70%) | A (percent of modification ≥70%) | ≥ 6.30 | – | C=CC(=O)N1CC[C@@H](Oc2nc(OC[C@@]34CCCN3C[C@H](F)C4)nc3c(F)c(-c4ccc(F)c5sc(N)nc45)c(Cl)cc23)C1 (atropisomer, axis not shown) [Compound 3]
– | C (10%≤modification <50%) | D (percent of modification <10%) | 5.30 to 6.30 | < 6.00 | C=CC(=O)N1CC[C@H](Oc2nc(OC[C@@]34CCCN3C[C@H](F)C4)nc3c(F)c(-c4ccc(F)c5sc(N)nc45)c(Cl)cc23)C1 (atropisomer, axis not shown) [Compound 8]
– | C (10%≤modification <50%) | D (percent of modification <10%) | 5.30 to 6.30 | 6.00 to 7.00 | C=CC(=O)N1CC[C@H](Oc2nc(OC[C@@]34CCCN3C[C@H](F)C4)nc3c(F)c(-c4ccc(F)c5sc(N)nc45)c(C(F)(F)F)cc23)C1 (atropisomer, axis not shown) [Compound 9]
– | D (percent of modification <10%) | D (percent of modification <10%) | 5.30 to 6.30 | 6.00 to 7.00 | C=CC(=O)N1CC[C@@H](Oc2nc(OC[C@@]34CCCN3C[C@H](F)C4)nc3c(F)c(-c4ccc(F)c5sc(N)nc45)c(Cl)cc23)C1 (atropisomer, axis not shown) [Compound 10]
– | A (percent of modification ≥70%) | C (10%≤modification <50%) | 5.30 to 6.30 | 6.00 to 7.00 | C=CC(=O)N1CC[C@@H](Oc2nc(OC[C@@H]3CC(C)(C)CN3C)nc3c(F)c(-c4ccc(F)c5sc(N)nc45)c(C(F)(F)F)cc23)C1 (atropisomer, axis not shown) [Compound 16]
– | A (percent of modification ≥70%) | C (10%≤modification <50%) | ≥ 6.30 | ≥ 7.00 | C=CC(=O)N1CC[C@@H](Oc2nc(OC[C@@H]3C[C@@H](F)CN3C)nc3c(F)c(-c4ccc(F)c5sc(N)nc45)c(C(F)(F)F)cc23)C1 (atropisomer, axis not shown) [Compound 18]
